In US20140364422A1, “Aqueous Pharmaceutical Composition With Enhanced Stability” (NOVARTIS AG, priority 2012, published 2014):

Experiments:
[1] = Solubility/clarity and freeze-thaw of 1.0% olopatadine in native guar with HPCD (Table 4-1); type: physicochemical; conditions: 0.17% native guar, approximately 5% or more HPCD, physiologic pH of approximately 7
Method: (§1) Various concentrations of HPCD were used in the formulations. The formulations were filled in glass scintillation vials and in LDPE Drop-Tainers. The formulations were evaluated for clarity using UV light.

[2] = Solubility/clarity and freeze-thaw of 0.5% and 1.0% olopatadine in native guar with HPCD (Table 5-1); type: physicochemical; conditions: physiologic pH of 7; for Olopatadine solubility: 0.17% native guar
Method: as §1
Formulation Compositions Containing 0.5% and 1.0% Olopatadine in 0.17% Native Guar and 1% to 6% Hydroxypropyl-Beta-Cyclodextrin (HPCD).

[3] = tested on: late phase allergy symptoms; assay: Efficacy of olopatadine aqueous ophthalmic solutions in reducing late phase allergy symptoms; type: in vivo
Source text: Olopatadine is a known compound that can be obtained by the methods disclosed in U.S. Pat. No. 5,116,863, the entire contents of which are hereby incorporated by reference in the present specification for all purposes. Olopatadine is an antihistamine (as well as anticholinergic) and mast cell stabilizer. Olopatadine is a selective histamine H1 antagonist. When included, the composition of the present invention contains at least 0.1%, more typically at least 0.33% or 0.55%, even more typically at least 0.65% or 0.67%, still more typically at least 0.7%, but typically no greater than 1.5% more typically no greater than 1.0%, still more typically no greater than 0.8%, possibly no greater than 0.75% and even possibly no greater than 0.72% or 0.6% of olopatadine where concentrations of olopatadine typically represent concentrations of olopatadine in free base form if the olopatadine is added to the composition as a salt. […] Advantageously, for the composition of the present invention, lower concentrations (e.g., at least 0.50 w/v %, at least 0.55 w/v %, or at least 0.60 w/v %) may show significant improvements and even possibly statistically significant improvements in reducing late phase allergy symptoms.

In the case of `CN(C)CC/C=C1/c2ccccc2COc2ccc(CC(=O)O)cc21` [Olopatadine, (Z)-11-(3-dimethylaminopropylidene)-6,11-dihydro-dibenz-[b,e]oxepin-2-acetic acid], the Olopatadine concentration solubilized [1] is reported as 1%, the Olopatadine solubility ([2]; HPCD at or above approximately 2%) is reported as 0.5% and the Olopatadine solubility ([2]; HPCD at or above approximately 4%) is reported as 1%. The “concentration of cyclodextrin that can solubilize Olopatadine” value ([2]; 0.5% Olopatadine together with 0.17% guar) was “approximately 2%”, the “concentration of cyclodextrin that can solubilize Olopatadine” value ([2]; 0.6% Olopatadine together with 0.17% guar) was about 4% and the “olopatadine concentration at which efficacy in reducing late phase allergy symptoms begins to show improvement” value [3] was “greater than 0.5 w/v %”. The “olopatadine concentration at which statistically significant improvements in reducing late phase allergy symptoms begin” value ([3]; about 0.7 w/v % and above) was “at least 0.7 w/v %”.
